The values that follow come from patent publication US20230381170A1, “METHOD FOR TREATING ALS/FTD THROUGH DEGRADATION OF RNA REPEAT EXPANSION” (University of Florida Research Foundation, Incorporated, priority 2020, published 2023).

The subject of one data set is c9 patient-derived iPSCs. Description: Cell viability. The class given is cell-based, human. Particulars: 1-1000 nM. Here is the method: Cell Viability. Lymphoblastoid cells were seeded in 96-well plate (˜10^4 cells/well) overnight and then treated with compounds for 48 h. The cell viability was measured by CellTiter-Fluor™ Cell Viability Assay per the manufacturer's protocol. For iPSCs, cells (diluted 1:4 after harvesting from a 100 mm dish) were seeded in Matrigel-coated 24-well plate. After 24 h, the compounds were added for 48 h and cell viability was measured by AlamarBlue™ Cell Viability Reagent (DAL1025, Thermo Fisher Scientific) per the manufacturer's protocol.

The next data set has as its system r(G4C2)8. Description: RIBOTAC cleavage of r(G4C2)8 in vitro, FRET assay with RNase L. The class given is biochemical. Particulars: r(G4C2)8 labeled Cy5/Cy3. As to the method: RIBOTAC Cleavage of […] in vitro: Gel Analysis. A model of r(G4C2)^exp, r(G4C2)8 was radioactively labeled at its 5′ end and purified on a denaturing 15% polyacrylamide gel as previously described (12, 57). Then, 25 nM of labeled RNA was folded by heating at 95° C. for 5 min in 1× Rnase L buffer (25 mM Tris-HCl, pH7.4, and 100 mM NaCl) and allowed to slowly cool to room temperature. To the folded RNA was added 2-Mercaptoethanol (7 mM final concentration), ATP (50 µM final concentration), and MgCl2 (10 mM final concentration). Compound was added, and the samples were incubated for 15 min at room temperature. Next, Rnase L was added to a final concentration of 25 or 50 nM, and the samples were incubated at 37° C. (1 h or overnight). Fragments were separated on a denaturing 15% polyacrylamide gel, imaged by phosphorimaging with a Typhoon FLA 9500, and quantified with BioRad's QuantityOne software. All studies were performed in duplicate.
RIBOTAC Cleavage of r(G4C2)8 in vitro: FRET Assay. A FRET assay was developed to monitor RIBOTAC-induced cleavage of r(G4C2)8 by Rnase L. This assay uses r(G4C2)8 labeled with Cy5 and Cy3, at the 5′ and 3′ end, respectively (Dharmacon). […] Fluorescence was measured on a Molecular Devices SpectraMax M5 plate reader (Cy3, Ex.: 554 nm; Em.: 568 nm; Cy5, Ex.: 649 nm, Em.: 666 nm; FRET, Ex.: 554 nm, Em.: 666 nm). […]

For a further data set, the system named is Poly(GP). Description: Poly(GP) sandwich immunoassay in brain of +/+PWR500 mice. Type of data set: in vivo, mouse. As to the method: (§1) Therapeutic Efficacy in a c9ALS/FD mouse model. All animal studies were completed as approved by the Scripps Florida Institutional Animal Care and Use Committee. A total of 24 mice (12+/+PWR500 [7 Male and 5 Female] and 12 WT [6 Male and 6 Female]) mice, age- and gender-matched and ranging in age from 18-22 weeks old were used in therapeutic efficacy studies (Table 6). Mice were anesthetized by intraperitoneal (i.p.) injection of 10 mg/mL Ketamine:1 mg/mL Xylazine solution. Intracerebroventricular (ICV) stereotactic injections of 10 μL of 7 (33 nmol) were administered into the right ventricle using the following coordinates: 0.2 mm posterior and 1.0 mm lateral to the right from the bregma and 3 mm deep. Mice were treated with 7 or vehicle consisting of 1% DMSO in Saline. Three weeks post-treatment, mice were euthanized, and tissue was harvested for study.
Measuring Poly(GP) by MSD. Postmortem brain tissue was harvested and sliced sagittal at the midline. The left hemisphere was frozen for protein and RNA analysis. The left hemisphere of each brain was homogenized in 300 μL of ice-cold Tris-EDTA buffer with 2× protease inhibitors. […] Protein concentrations were measured by BCA assay (Pierce Biotechnology) and Poly(GP) was measured as described above. Statistical analysis was measured using an unpaired t-test with Welch's correction.

Data set [1] deals with Poly(GP), Poly(GA), TDP-43 inclusions. The data set can be described thus: Immunohistochemistry of sagittal brain sections of +/+PWR500 mice. Particulars: cortex. Type of data set: in vivo, mouse. Here is the method: as §1
Immunohistochemistry. Tissue was excised postmortem, and brain tissue was sliced at the midline. The right hemisphere was stored in 10% neutral buffered formalin for 48 h. Tissue processing, embedding and sectioning were carried out by the Scripps Florida's Histology Core. Formalin-fixed tissue was placed on a paraffin processor (Sakura Tissue-Tek VIPS), embedded in paraffin, sectioned a 4 μm, and mounted on plus slides. The slides were optimized with the appropriate primary antibody dilutions (see below) on the Leica BOND-MAX platform followed by the Leica Refine Detection Kit containing the secondary polymer, DAB chromagen and counterstain. After dehydration in graded alcohols and cleared in xylene, the slides were cover slipped with a permanent mounting medium, Cytoseal 60 (Thermo Scientific). Images were taken in the right hemisphere of the cortex due north of the hippocampus with 5 images were taken per slice. Average number of aggregates or inclusions per cell was assessed for each sample and reported. Statistical analysis was measured using an unpaired t-test with Welch's correction. Immunohistochemical staining and analyses were completed blinded.

For another data set, the system named is C9orf72 transcripts. The data set can be described thus: C9orf72 variants by RT-qPCR in brain of +/+PWR500 C9orf72 BAC mice. Particulars: three weeks. The class given is in vivo, mouse. As to the method: as §1
Measuring C9orf72 Variants by RT-qPCR. Postmortem brain tissue was harvested and sliced along the midline. The left hemisphere was frozen for RNA and protein analysis. The left hemisphere of each brain was homogenized in 300 μL ice cold Tris-EDTA buffer with 2× protease inhibitors. 150 μL of homogenized tissue was used for RNA extraction. 450 μL of triazol LS was added to the homogenized tissue and centrifuged for 15 min at 16,000 rpm. Following centrifugation, supernatant was collected and an equal volume (600 μL) of 100% ethanol was added and mixed thoroughly. RNA was purified using a Direct-zol RNA Kit (Zymo Research) per the manufacturer's protocol. RT-qPCR was performed as described above. Expression levels of mRNAs were normalized to mouse (3-actin. See Table 2 for a list of primers. Statistical analysis was measured using an unpaired t-test with Welch's correction.

`Cc1c2ccncc2c(C)c2c1[nH]c1ccc(OCCOCCOCCNCCOCCOCCOc3ccc4[nH]c5c(C)c6ccncc6c(C)c5c4c3)cc12` [Compound 3]: the toxicity entry with c9 patient-derived iPSCs was “no toxicity”.
On to `CCOC(=O)C1=C(Nc2ccccc2)S/C(=C\c2ccc(OCCOCCOCCOCCNC(=O)CCC(=O)N(CCOCCOCCOc3ccc4[nH]c5c(C)c6ccncc6c(C)c5c4c3)CCOCCOCCOc3ccc4[nH]c5c(C)c6ccncc6c(C)c5c4c3)c(O)c2)C1=O` [Compound 7], for which the “FRET signal upon addition of compound and Rnase L” value in the data set with r(G4C2)8 is recorded as “dose dependently decreased”. For the same compound, the “reduction of Poly(GP)” value in the data set with Poly(GP) (33 nmol ICV, three weeks, brain) amounted to 74±24%. In the data set on Poly(GP) (+/+PWR500 or WT mice), the “actin protein expression (control)” value is reported as “no decrease”. Besides, in data set [1] (compared to vehicle), the “Poly(GA) aggregates” value is “significant decrease” and the “Poly(GP) aggregates” value was “significant decrease”. For the same compound, the TDP-43 inclusions entry in data set [1] (relative to vehicle) is on record as “decreased”. In addition, in the data set with C9orf72 transcripts (33 nmol ICV), the “C9orf72 exon 1b RNA levels” value is reported as “not altered” and the “all C9orf72 transcripts (exon 2-exon 3 junction)” value is “reduced”. The “reduction of r(G4C2)exp-containing intron 1 mRNA” value with C9orf72 transcripts (33 nmol single ICV injection, compared to vehicle) was 44±22%.
